Experimental findings from patent US7101878B1 (Agouron Pharmaceuticals, Inc., priority 1998, dated 2006) are described below.

This assay has as its target T1, mouse GnRH receptor (Mus musculus, UniProt Q01776).
T1 construct: expressed in transfected cells; host or cells: 293 cells
T1 sequence (Q01776 1-327): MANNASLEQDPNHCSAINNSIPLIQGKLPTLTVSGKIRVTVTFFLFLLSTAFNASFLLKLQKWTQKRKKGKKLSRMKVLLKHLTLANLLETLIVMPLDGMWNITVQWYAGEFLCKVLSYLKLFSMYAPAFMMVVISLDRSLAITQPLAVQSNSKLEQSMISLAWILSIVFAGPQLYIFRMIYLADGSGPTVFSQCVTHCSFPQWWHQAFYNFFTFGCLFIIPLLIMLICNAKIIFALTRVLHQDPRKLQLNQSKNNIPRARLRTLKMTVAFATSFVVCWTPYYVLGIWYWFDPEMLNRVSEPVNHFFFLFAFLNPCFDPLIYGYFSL
Nature of the assay: Radioligand binding, 125I-GnRH-A, 293 cells expressing mouse GnRH receptors. The conditions noted are these: 10 uM; read-out: % Inhib. @ 10 uM mGnRH. As to the method: All compounds were diluted in 1% DMSO (final assay concentration) in binding assay buffer. […] Reactions were terminated by rapid filtration onto 96-well Packard GF/C filters soaked in 0.1% polyethyleneimine. Filters were washed three times with PBS buffer, dried and counted on a Packard Topcount by liquid scintillation counting.
Assay conditions were identical for assessing compound activities at other species. […] IC50 values for control peptides and test compounds were calculated utilizing GraphPad Prism™ software.
The reaction mixture was vortexed and incubated for 1 min at room temperature. After one min, the mixture was vortexed and allowed to incubate for an additional minute. 2 ml of 0.5 M acetic acid/1% BSA was added to the reaction tube and the mixture was added to a C18 Sep-Pak cartridge. The cartridge was washed with subsequent washes of 5 ml H2O and 5 ml 0.5M acetic acid and then eluted with 5×1 ml of 60% CH3CN/40% 0.5M acetic acid. The eluate was diluted with 3× volume of HPLC buffer A (0.1% TFA in H2O) and loaded onto a C18 column. […] The radioactive fractions (750 ed/fraction) are collected into clean polypropylene tubes containing 100 μl of 10% BSA. Fractions were assessed for biological activity by radioligand binding.
As for `Cc1cc2c(cc1Cc1ccc(C(=O)NCCCN(C)C)o1)C(C)(C)CCC2(C)C`, the inhibition at 10 µM worked out at 99%.

Take `Cc1cc2c(cc1Cc1ccc(C(=O)N3CCC[C@H]3CO)o1)C(C)(C)CCC2(C)C`: the inhibition at 10 µM worked out at 93%.

For the compound `Cc1cc2c(cc1Cc1ccc(C(=O)N3CCN(Cc4ccc5c(c4)OCO5)CC3)o1)C(C)(C)CCC2(C)C`, the inhibition at 10 µM worked out at 66%.

Consider `CCN1CCCC1CNC(=O)c1ccc(Cc2cc3c(cc2C)C(C)(C)CCC3(C)C)o1` (stereo not shown), for which the inhibition at 10 µM came out at 96%.

In the case of `Cc1cc2c(cc1Cc1ccc(C(=O)N3CCN(Cc4ccccc4)CC3)o1)C(C)(C)CCC2(C)C`, the inhibition at 10 µM was 83%.

For the compound `Cc1cc2c(cc1Cc1ccc(C(=O)N3CCN(CC(=O)NC(C)C)CC3)o1)C(C)(C)CCC2(C)C`, the inhibition at 10 µM is 63%.

Take `C=CCN(C(=O)c1ccc(Cc2cc3c(cc2C)C(C)(C)CCC3(C)C)o1)C1CCCCC1`: the inhibition at 10 µM was found to be 65%.

For the compound `Cc1cc2c(cc1Cc1ccc(C(=O)N3CCCC4CCCCC43)o1)C(C)(C)CCC2(C)C` (stereo not shown), the inhibition at 10 µM was found to be 94%.

With `CCN(CC)C(=O)C1CCCN(C(=O)c2ccc(Cc3cc4c(cc3C)C(C)(C)CCC4(C)C)o2)C1` (stereo not shown), the inhibition at 10 µM was 21%.

Consider `Cc1cc2c(cc1Cc1ccc(C(=O)N3CCCCC3CO)o1)C(C)(C)CCC2(C)C` (stereo not shown), for which the inhibition at 10 µM is 84%.

As to `Cc1cc2c(cc1Cc1ccc(C(=O)N3CCCCC3CCO)o1)C(C)(C)CCC2(C)C` (stereo not shown), the inhibition at 10 µM is 100%.

Take `Cc1cc2c(cc1Cc1ccc(C(=O)N3CCN(CCCO)CC3)o1)C(C)(C)CCC2(C)C`: the inhibition at 10 µM was found to be 66%.

As for `Cc1cc2c(cc1Cc1ccc(C(=O)N(CCCCO)Cc3ccccc3)o1)C(C)(C)CCC2(C)C`, the inhibition at 10 µM was determined as 99%.

Consider `Cc1cc2c(cc1Cc1ccc(C(=O)N3Cc4ccccc4CC3C(=O)NCC(c3ccccc3)c3ccccc3)o1)C(C)(C)CCC2(C)C` (stereo not shown), for which the inhibition at 10 µM is 9%.

In the case of `Cc1cc2c(cc1Cc1ccc(C(=O)N3CCN(C/C=C/c4ccccc4)CC3)o1)C(C)(C)CCC2(C)C`, the inhibition at 10 µM was found to be 86%.

As to `Cc1cc2c(cc1Cc1ccc(C(=O)N[C@H]3CC[C@@H](O)CC3)o1)C(C)(C)CCC2(C)C`, the inhibition at 10 µM is 82%.

As for `CC(=O)NC1CCN(C(=O)c2ccc(Cc3cc4c(cc3C)C(C)(C)CCC4(C)C)o2)C1` (stereo not shown), the inhibition at 10 µM amounted to 63%.

Turning to `Cc1cc2c(cc1Cc1ccc(C(=O)NCC(O)CO)o1)C(C)(C)CCC2(C)C` (stereo not shown), the inhibition at 10 µM was 14%.

Regarding `CCN1CC(NC(=O)c2ccc(Cc3cc4c(cc3C)C(C)(C)CCC4(C)C)o2)CN1CC`, the inhibition at 10 µM was found to be 91%.

In the case of `CCCN(CC1CC1)C(=O)c1ccc(Cc2cc3c(cc2C)C(C)(C)CCC3(C)C)o1`, the inhibition at 10 µM worked out at 96%.

Consider `CCOC(=O)CN1CCN(C(=O)c2ccc(Cc3cc4c(cc3C)C(C)(C)CCC4(C)C)o2)CC1`, for which the inhibition at 10 µM came out at 66%.

Take `Cc1cc2c(cc1Cc1ccc(C(=O)N(C)C3CCN(C)C3)o1)C(C)(C)CCC2(C)C` (stereo not shown): the inhibition at 10 µM turned out to be 89%.

As to `COc1ccc(N2CCN(C(=O)c3ccc(Cc4cc5c(cc4C)C(C)(C)CCC5(C)C)o3)CC2C)cc1` (stereo not shown), the inhibition at 10 µM amounted to 73%.

In the case of `Cc1cc2c(cc1Cc1ccc(C(=O)N3CCCCC3C)o1)C(C)(C)CCC2(C)C` (stereo not shown), the inhibition at 10 µM stood at 100%.

Regarding `Cc1cc2c(cc1Cc1ccc(C(=O)N3CCN(CCc4ccccc4)CC3)o1)C(C)(C)CCC2(C)C`, the inhibition at 10 µM amounted to 97%.

As to `Cc1cc2c(cc1Cc1ccc(C(=O)N(Cc3cccnc3)Cc3cccc4ccccc34)o1)C(C)(C)CCC2(C)C`, the inhibition at 10 µM turned out to be 79%.

For the compound `Cc1cc2c(cc1Cc1ccc(C(=O)N(Cc3cccnc3)Cc3ccc(Cl)c(Cl)c3)o1)C(C)(C)CCC2(C)C`, the inhibition at 10 µM was 79%.

As for `Cc1cc2c(cc1Cc1ccc(C(=O)N(Cc3cccnc3)Cc3ccoc3)o1)C(C)(C)CCC2(C)C`, the inhibition at 10 µM is 99%.

Regarding `Cc1cc2c(cc1Cc1ccc(C(=O)NC3CCCC3)o1)C(C)(C)CCC2(C)C`, the inhibition at 10 µM is 73%.

Consider `Cc1cc2c(cc1Cc1ccc(C(=O)N(C)C3CCCCC3)o1)C(C)(C)CCC2(C)C`, for which the inhibition at 10 µM is 97%.

Turning to `CCCCC(CC)COCCCNC(=O)c1ccc(Cc2cc3c(cc2C)C(C)(C)CCC3(C)C)o1` (stereo not shown), the inhibition at 10 µM was 58%.

Regarding `Cc1cc2c(cc1Cc1ccc(C(=O)N(CCO)CCO)o1)C(C)(C)CCC2(C)C`, the inhibition at 10 µM was 34%.

`Cc1cc2c(cc1Cc1ccc(C(=O)N(Cc3ccccc3Cl)C3CCN(Cc4ccccc4)CC3)o1)C(C)(C)CCC2(C)C`: the inhibition at 10 µM stood at 43%.

Turning to `Cc1cc2c(cc1Cc1ccc(C(=O)N3CCC[C@H]3C(N)=O)o1)C(C)(C)CCC2(C)C`, the inhibition at 10 µM was 74%.

On to `CCCCCNC(=O)c1ccc(Cc2cc3c(cc2C)C(C)(C)CCC3(C)C)o1`, for which the inhibition at 10 µM was 91%.

On to `CCC1CCCCN1C(=O)c1ccc(Cc2cc3c(cc2C)C(C)(C)CCC3(C)C)o1` (stereo not shown), for which the inhibition at 10 µM is 100%.

For the compound `Cc1cc2c(cc1Cc1ccc(C(=O)NCCN(C(C)C)C(C)C)o1)C(C)(C)CCC2(C)C`, the inhibition at 10 µM amounted to 102%.

With `Cc1ccc(CN(CCc2ccc(Cl)cc2Cl)C(=O)c2ccc(Cc3cc4c(cc3C)C(C)(C)CCC4(C)C)o2)cc1`, the inhibition at 10 µM was found to be 23%.

Take `CCN(Cc1ccccc1F)C(=O)c1ccc(Cc2cc3c(cc2C)C(C)(C)CCC3(C)C)o1`: the inhibition at 10 µM is 86%.

For `Cc1ccc(N2CCN(C(=O)c3ccc(Cc4cc5c(cc4C)C(C)(C)CCC5(C)C)o3)CC2)cc1C`, the inhibition at 10 µM stood at 75%.

In the case of `Cc1cc2c(cc1Cc1ccc(C(=O)N(CCN3CCCC3)Cc3cccc(Oc4cccc(C(F)(F)F)c4)c3)o1)C(C)(C)CCC2(C)C`, the inhibition at 10 µM was 99%.

Turning to `Cc1cc2c(cc1Cc1ccc(C(=O)N(Cc3cccc(Oc4cccc(C(F)(F)F)c4)c3)CC(C)(C)CN(C)C)o1)C(C)(C)CCC2(C)C`, the inhibition at 10 µM worked out at 89%.

On to `Cc1cc2c(cc1Cc1ccc(C(=O)N3CCN(c4ccccc4O)CC3)o1)C(C)(C)CCC2(C)C`, for which the inhibition at 10 µM turned out to be 36%.

Regarding `Cc1cc2c(cc1Cc1ccc(C(=O)N(CCC#N)Cc3ccccc3)o1)C(C)(C)CCC2(C)C`, the inhibition at 10 µM came to 74%.

In the case of `Cc1cc2c(cc1Cc1ccc(C(=O)N(CCC(c3ccccc3)c3ccccc3)C(C)c3ccccc3)o1)C(C)(C)CCC2(C)C` (stereo not shown), the inhibition at 10 µM stood at 30%.

Take `Cc1cc2c(cc1Cc1ccc(C(=O)NCCc3ccc(OCc4ccccc4)c(OCc4ccccc4)c3)o1)C(C)(C)CCC2(C)C`: the inhibition at 10 µM was found to be 20%.

Consider `Cc1cc2c(cc1Cc1ccc(C(=O)N(C)CCCC34c5ccccc5[C@@H]5CCC53c3ccccc34)o1)C(C)(C)CCC2(C)C` (stereo partly shown), for which the inhibition at 10 µM stood at 14%.

Consider `Cc1cc2c(cc1Cc1ccc(C(=O)N(Cc3c[nH]c4ccccc34)C3CCCCC3)o1)C(C)(C)CCC2(C)C`, for which the inhibition at 10 µM amounted to 27%.

For `COc1cc2c(cc1OC)C(c1ccccc1)N(C(=O)c1ccc(Cc3cc4c(cc3C)C(C)(C)CCC4(C)C)o1)CC2` (stereo not shown), the inhibition at 10 µM amounted to 29%.

Consider `Cc1cc2c(cc1Cc1ccc(C(=O)N3CC4(C)CC3CC(C)(C)C4)o1)C(C)(C)CCC2(C)C` (stereo not shown), for which the inhibition at 10 µM is 100%.

Regarding `Cc1cc2c(cc1Cc1ccc(C(=O)N3CC=C(n4c(=O)[nH]c5ccccc54)CC3)o1)C(C)(C)CCC2(C)C`, the inhibition at 10 µM is 85%.

As for `Cc1cc2c(cc1Cc1ccc(C(=O)NC3C4CC5CC6CC(C5)C643)o1)C(C)(C)CCC2(C)C` (stereo not shown), the inhibition at 10 µM was determined as 37%.

As for `Cc1cc2c(cc1Cc1ccc(C(=O)N3CCC[C@@H]3C(=O)NC(c3ccccc3)c3ccccc3)o1)C(C)(C)CCC2(C)C`, the inhibition at 10 µM was 58%.

On to `Cc1cc2c(cc1Cc1ccc(C(=O)NCCC(C)C)o1)C(C)(C)CCC2(C)C`, for which the inhibition at 10 µM turned out to be 88%.

For `Cc1cc2c(cc1Cc1ccc(C(=O)N[C@H](C)c3ccccc3)o1)C(C)(C)CCC2(C)C`, the inhibition at 10 µM stood at 72%.

Take `Cc1cc2c(cc1Cc1ccc(C(=O)N3CCC[C@@H]3C(=O)OCc3ccccc3)o1)C(C)(C)CCC2(C)C`: the inhibition at 10 µM turned out to be 86%.

With `Cc1cc2c(cc1Cc1ccc(C(=O)N(C)CC(O)c3ccc(O)cc3)o1)C(C)(C)CCC2(C)C` (stereo not shown), the inhibition at 10 µM stood at 34%.

Take `COc1ccccc1CN(CCC(c1ccccc1)c1ccccc1)C(=O)c1ccc(Cc2cc3c(cc2C)C(C)(C)CCC3(C)C)o1`: the inhibition at 10 µM came out at 21%.

Turning to `Cc1cc2c(cc1Cc1ccc(C(=O)N(CCC(c3ccccc3)c3ccccc3)Cc3ccc4c(c3)OCO4)o1)C(C)(C)CCC2(C)C`, the inhibition at 10 µM was determined as 25%.

Regarding `Cc1cc2c(cc1Cc1ccc(C(=O)N(CCC(c3ccccc3)c3ccccc3)CC3CCCCC3)o1)C(C)(C)CCC2(C)C`, the inhibition at 10 µM worked out at 31%.

Turning to `Cc1cc2c(cc1Cc1ccc(C(=O)N(Cc3ccc(O)cc3)C3CCN(Cc4ccccc4)CC3)o1)C(C)(C)CCC2(C)C`, the inhibition at 10 µM was 28%.

Consider `COC(=O)C1SCCN1C(=O)c1ccc(Cc2cc3c(cc2C)C(C)(C)CCC3(C)C)o1` (stereo not shown), for which the inhibition at 10 µM is 39%.

Regarding `Cc1cc2c(cc1Cc1ccc(C(=O)N[C@H](C)c3ccc([N+](=O)[O-])cc3)o1)C(C)(C)CCC2(C)C`, the inhibition at 10 µM worked out at 44%.

Take `Cc1cc2c(cc1Cc1ccc(C(=O)NC(C)(C)CNC(=O)C(F)(F)F)o1)C(C)(C)CCC2(C)C`: the inhibition at 10 µM amounted to 37%.
